Where two headings read alike, the source gives them in different places.
Tests used:
platelet aggregation = assay: ADP-induced platelet aggregation in hirudin-treated whole blood (ex vivo); format: cell-based, human; conditions: for % Inhibition (Platelet Aggregation) @ 100 μM: ADP 6.4 μM
Protocol: 2.7. Platelet Aggregation Assay
Platelet aggregation was measured in hirudin-anticoagulated whole blood from a healthy donor with ADP as agonist (end concentration 6.4 μM) using a Multiplate® impedance aggregometer (Dynabyte Informationssysteme GmbH, Munich, Germany). At 37 °C, cells were charged with 300 μL of saline, 300 μL of blood, 1 μL of compound (0.1% DMSO) and incubated for 3 min. The agonist was added and the increase in electrical impedance measured from 2 electrode pairs/cell for 6 min, transformed into arbitrary units (AU), and the area under the curve was calculated.

αIIbβ3 = biological target: T1, αIIbβ3 (Homo sapiens, UniProt P05106+P08514); assay: αIIbβ3/fibrinogen purified protein binding ELISA; conditions: for IC50: read-out: IC50 (αIIbβ3/Fg)
T1 construct: purchased Sigma
T1 sequence (P08514 32-887 limits assumed): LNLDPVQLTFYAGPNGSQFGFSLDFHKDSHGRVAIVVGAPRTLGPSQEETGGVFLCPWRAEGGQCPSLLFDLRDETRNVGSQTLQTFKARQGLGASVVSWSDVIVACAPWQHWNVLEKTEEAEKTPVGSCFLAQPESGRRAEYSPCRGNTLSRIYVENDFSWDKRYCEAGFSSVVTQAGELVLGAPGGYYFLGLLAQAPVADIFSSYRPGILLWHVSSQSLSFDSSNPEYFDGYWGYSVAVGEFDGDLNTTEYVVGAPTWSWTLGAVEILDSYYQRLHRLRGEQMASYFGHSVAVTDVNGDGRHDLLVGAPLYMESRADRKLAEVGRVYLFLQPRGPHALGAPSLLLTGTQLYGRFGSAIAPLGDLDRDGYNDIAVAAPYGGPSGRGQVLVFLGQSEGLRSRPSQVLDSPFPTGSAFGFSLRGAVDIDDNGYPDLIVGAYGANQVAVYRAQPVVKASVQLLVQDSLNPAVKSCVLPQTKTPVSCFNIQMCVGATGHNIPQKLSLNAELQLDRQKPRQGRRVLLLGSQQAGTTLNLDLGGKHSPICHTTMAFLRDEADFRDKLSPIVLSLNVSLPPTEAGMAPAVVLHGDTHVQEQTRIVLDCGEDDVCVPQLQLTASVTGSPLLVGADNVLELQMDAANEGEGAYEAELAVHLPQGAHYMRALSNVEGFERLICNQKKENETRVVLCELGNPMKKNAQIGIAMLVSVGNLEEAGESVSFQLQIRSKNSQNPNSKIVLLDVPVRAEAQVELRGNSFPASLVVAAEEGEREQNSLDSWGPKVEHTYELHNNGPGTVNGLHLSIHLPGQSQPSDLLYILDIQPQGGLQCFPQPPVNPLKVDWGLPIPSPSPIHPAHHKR
T1 sequence (P08514 891-1039 partner limits assumed): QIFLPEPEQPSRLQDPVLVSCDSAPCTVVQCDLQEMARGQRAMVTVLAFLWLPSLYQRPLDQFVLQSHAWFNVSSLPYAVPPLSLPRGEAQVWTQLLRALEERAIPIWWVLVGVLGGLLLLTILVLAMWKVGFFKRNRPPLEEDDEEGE
T1 sequence (P05106 27-788): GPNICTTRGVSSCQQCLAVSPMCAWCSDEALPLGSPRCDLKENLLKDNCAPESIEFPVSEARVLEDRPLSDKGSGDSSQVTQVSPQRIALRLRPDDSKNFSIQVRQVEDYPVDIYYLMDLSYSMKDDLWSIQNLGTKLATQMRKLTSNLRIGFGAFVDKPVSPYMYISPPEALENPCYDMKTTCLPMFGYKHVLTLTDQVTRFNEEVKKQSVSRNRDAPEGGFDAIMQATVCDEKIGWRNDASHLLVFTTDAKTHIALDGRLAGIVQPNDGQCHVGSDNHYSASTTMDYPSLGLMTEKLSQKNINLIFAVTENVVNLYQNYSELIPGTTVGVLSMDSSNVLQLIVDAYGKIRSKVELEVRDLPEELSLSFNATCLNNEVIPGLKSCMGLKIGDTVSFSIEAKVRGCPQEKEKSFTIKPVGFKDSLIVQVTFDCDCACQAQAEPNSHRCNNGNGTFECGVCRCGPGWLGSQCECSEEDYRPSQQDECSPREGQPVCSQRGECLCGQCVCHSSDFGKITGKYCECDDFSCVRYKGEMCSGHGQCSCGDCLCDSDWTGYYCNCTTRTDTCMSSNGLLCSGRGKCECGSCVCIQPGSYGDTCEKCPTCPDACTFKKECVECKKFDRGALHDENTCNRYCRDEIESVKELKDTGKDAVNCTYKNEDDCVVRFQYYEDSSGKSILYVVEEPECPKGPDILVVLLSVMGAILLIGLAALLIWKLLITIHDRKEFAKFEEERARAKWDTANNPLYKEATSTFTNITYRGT
Protocol: ELISA assays were performed as previously described with minor modifications. Briefly, serial dilutions of compounds were prepared in dimethyl sulfoxide (DMSO). C8 Maxi Immuno modules (Fisher Scientific) were incubated overnight at 4 °C with 0.5 μg/well of fibrinogen (Sigma) in sterile phosphate buffered saline (PBS, 0.2 g/L KCl, 8.0 g/L NaCl, 0.2 KH2PO4, 1.15 g/L Na2HPO4, pH 7.4). All subsequent wash steps were performed using 25 mM Tris, pH 7.6, 150 mM NaCl, 1 mM MnCl2, 1 mg/mL BSA, and binding/inhibition was carried out in 25 mM Tris, pH 7.6, 150 mM NaCl, 1 mM MnCl2, 1 mM MgCl2, 1 mM CaCl2, 1 mg/mL BSA.
Wells were washed and blocked with a blocking solution (PBS, 0.1% Tween 20, 3% BSA) for 1 h at 37 °C. Compounds were added to the wells at indicated concentrations (final 0.5% DMSO) in the presence of 0.5 µg/well αIIbβ3 (Sigma) and incubated at room temp for 1 h. After 3 washes, primary anti-αIIb (1:200 dilution, Santa Cruz Biotech, Heidelberg, Germany) and antigoat–HRP (1:500 dilution, Dako, Agilent, Santa Clara, CA, USA) were added at room temp for 1 h. The wells were washed and incubated with 0.1 mg/mL tetra-methylbenzidine (Sigma) for 25 min and the reaction was stopped with 1N H2SO4 (100 μL/well). The absorbance was measured at 450 nm using a Multiscan Spectrum reader (Thermo Scientific, Thermofisher, UK) and SkanIT RE (v2.4.4.5) software. Results were plotted as percent binding vs. log concentration and IC50 values determined.

in vitro = format: cell-based, human; conditions: human
Protocol: (§1) Before use in cell-based assays of integrin function, the effect of compounds on cell proliferation was tested using the MTT assay to avoid adhesion results being confounded by cell death (Supplementary Table S1). The effect of compounds on cell adhesion was then initially tested at a single, nontoxic concentration to identify active antagonists for further characterisation; those displaying a promising activity in the adhesion assay were tested at a wider range of concentrations to determine the IC50 (Table 2). […] Nevertheless, it is a cost-effective initial screening method. page 4: Table S1. Cytotoxicity of compounds on the cell lines used in the functional assays (measured by MTT assay). Cells (2000 cells/well for Sk-Mel-2; 1 x 10^4 cells/mL for M14) were incubated for 96 hours at 37 ° C in a total volume of 200 μL/well (180 μL medium + 20 μ L test compound solution). After 96 hours, the medium was replaced by fresh medium containing 0.5 mg/ml (end conc.) MTT per well, incubated for 4 h then the plate processed and read as described in the main text. […] ICT9053 41 naphthyridine 1 NHSO2Mes H Ester 52.6 ± 0.6 72.7 ± 9.8 ICT9065 42 naphthyridine 1 H H Ester >100 - ICT9079 43 naphthyridine 0 NHSO2Mes H Ester ~100 - ICT9061 44 naphthyridineT 1 NHSO2Mes H Ester 46.8 ± 10.7 - […] Ester 65.4 ± 11.1 >100 […] Ester 9.6 ± 5.7 >100 […] Ester >100 - […] Ester 54.6 ± 11.0 - […] Ester >5 3.3 ± 0.8 […] ICT9028 51 pyrimidine 2 NHSO2Ph H Acid >100 - ICT9031 52 pyrimidineT 1 NHSO2Mes H Acid >100 - ICT9090 53 pyrimidineT 2 NHSO2Mes H Acid >50 - ICT9029 54 pyrimidineT 2 NHSO2Ph H Acid >100 - ICT9063 55 naphthyridine 1 NHSO2Mes H Acid 61.7 ± 2.8 - […] Acid 45.5 ± 7.9 >100 […] 42.5 ± 1.8 >50 RGDS >50 - T trans configuration of cyclobutane sidechains.

[1] = Cytotoxicity by MTT assay, 96 h, M14; format: cell-based, human; conditions: human
Protocol: as §1

M14 cells = assay: cells; format: cell-based, human; conditions: 24 h
Protocol: M14 cells (4 × 10^5/mL in RPMI 1640 medium) were seeded in six-well plates and incubated at 37 °C in a 5% CO2 humidified atmosphere for 48 h. The resulting confluent monolayer was scratched with a sterile P200 pipette tip to create a gap (approximately 2 cm in length and 650 μm in width) in the centre of the well. The medium was removed, and the cells washed with Hank’s balanced salt solution (HBSS) (1 mL) and replaced with a medium containing the test antagonist. After 24 h, the cells were washed twice with HBSS and fixed with ice-pre-cooled methanol for thirty minutes at −20 °C. Following hydration with two washes in PBS, the monolayers were counterstained with Harris’s haematoxylin solution for two minutes, then washed in tap water for one minute and left to dry at room temperature. The plates were observed using an inverted microscope, and digital images captured.
The anti-αvβ3 activity of selected compounds was confirmed in a wound-healing assay (Figure 3). A number of cell lines were initially investigated for their suitability in this assay. The Sk-Mel-2 cell line which adhered well to fibronectin in the adhesion assay migrated very slowly; therefore, M14 melanoma cells which combined high levels of αvβ3 with rapid migration and low levels of proliferation over the assay period (Supplementary Figure S4) were selected.

Sk-Mel-2 = assay: in vitro; format: cell-based, human
Protocol: as §1

αvβ3 = biological target: T2, αvβ3 (Homo sapiens, UniProt P05106+P06756); assay: Sk-Mel-2 cell adhesion to immobilised fibronectin (cell-binding assay, MTT readout); format: cell-based; conditions: Sk-Mel-2 adhesion to Fn, mean ± SD
T2 construct: endogenous in cells; host or cells: SK-Mel-2 melanoma cells
T2 sequence (P06756 31-889 limits assumed): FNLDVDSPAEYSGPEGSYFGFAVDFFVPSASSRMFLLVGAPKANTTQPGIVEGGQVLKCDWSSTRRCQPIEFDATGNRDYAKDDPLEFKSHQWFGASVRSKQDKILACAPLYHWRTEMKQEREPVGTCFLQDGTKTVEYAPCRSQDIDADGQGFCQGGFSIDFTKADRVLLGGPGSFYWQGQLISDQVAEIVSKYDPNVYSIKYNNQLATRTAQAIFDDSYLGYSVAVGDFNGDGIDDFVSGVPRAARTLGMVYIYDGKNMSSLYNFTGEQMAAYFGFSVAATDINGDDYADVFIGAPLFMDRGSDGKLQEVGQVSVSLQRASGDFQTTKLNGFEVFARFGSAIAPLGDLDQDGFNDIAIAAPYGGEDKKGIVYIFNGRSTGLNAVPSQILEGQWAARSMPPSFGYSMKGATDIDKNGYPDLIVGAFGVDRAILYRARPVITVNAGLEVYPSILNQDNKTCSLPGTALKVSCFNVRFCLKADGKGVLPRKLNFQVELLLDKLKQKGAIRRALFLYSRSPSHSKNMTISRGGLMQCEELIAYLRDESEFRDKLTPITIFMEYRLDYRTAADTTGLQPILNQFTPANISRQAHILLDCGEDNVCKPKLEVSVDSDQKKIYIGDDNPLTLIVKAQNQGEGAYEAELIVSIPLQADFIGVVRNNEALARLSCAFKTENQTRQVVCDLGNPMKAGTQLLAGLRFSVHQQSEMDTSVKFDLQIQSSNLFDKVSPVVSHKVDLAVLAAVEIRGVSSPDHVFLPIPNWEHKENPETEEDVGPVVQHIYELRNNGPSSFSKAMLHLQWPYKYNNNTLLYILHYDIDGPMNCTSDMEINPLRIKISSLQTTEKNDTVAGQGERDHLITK
T2 sequence (P06756 891-1048 partner limits assumed): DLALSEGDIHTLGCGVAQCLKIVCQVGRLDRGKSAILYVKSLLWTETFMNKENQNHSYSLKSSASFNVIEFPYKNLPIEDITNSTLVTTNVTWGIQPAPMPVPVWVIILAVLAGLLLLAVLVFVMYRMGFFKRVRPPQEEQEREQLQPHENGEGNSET
T2 sequence (P05106 27-788): as the sequence (P05106 27-788) above
Protocol: First, 96-well plates (Corning, VWR) were coated overnight at 4 °C with 0.5 μg/well fibronectin (Sigma). SK-Mel-2 cells were trypsinised, washed and resuspended in RPMI medium only at 10^5 cells/mL. Cells (100 µL/well) were treated with compound (DMSO final concentration 0.1%) at the indicated concentration for 4 hrs on a rotary shaker. Plates were washed (3 × PBS) and blocked with PBS/5% BSA for 2 hrs at 37 °C prior to adding the cells. Cells were incubated on the plates at 37 °C in a humidified chamber with 5% CO2 for 1 hr. The plates were washed 3× with PBS and a 200 µL/well RPMI medium containing 10% FCS added. The plates were incubated overnight at 37 °C as above. Finally, 0.5 mg/mL of 3-(4,5-dimethythiazol-2-yl)-2,5-diphenyl tetrazolium bromide (MTT) was added to each well and the plates incubated for a further 4 h. The medium was removed, and the insoluble formazan dissolved in 150 µL of DMSO. Absorbance was measured at 540 nm using a Thermo Multiskan EX (Thermofisher, UK)and Ascent Software (v2.6). Total binding was determined based on controls lacking any compounds (100% binding) in fibronectin-coated wells and uncoated wells blocked with BSA (0% binding) and corrected for background (no cells, fibronectin-coated).
As an initial test of anti-β3 activity, the ability of compounds to inhibit the adhesion of melanoma cells expressing high levels of αvβ3 and low levels of other RGD-binding integrins such as αvβ5 and α5β1 to immobilised fibronectin was evaluated.
Cells were seeded onto precoated plates in the presence or absence of putative antagonists and the number of adherent cells quantified colorimetrically.

M14 = assay: Cytotoxicity by MTT assay, 96 h, M14; format: cell-based, human; conditions: MTT, 96 hours
Protocol: as §1

| SMILES | IC50 at 96 h (in vitro) | % Inhibition (αIIbβ3/Fg) @ 50 μM (αIIbβ3; mean ± SD) | IC50 (αIIbβ3; mean ± SD) | IC50 (Sk-Mel-2) | IC50 (αvβ3) | % Inhibition (Platelet Aggregation) @ 100 μM (platelet aggregation) | also measured |
| --- | --- | --- | --- | --- | --- | --- | --- |
| Cl.Cl.Cl.N=C(N)c1ccc(N2CCN(C3CCN(CC(=O)O)CC3)CC2)cc1 [GR144053, reference compound] |  |  |  |  |  | 100% | IC50 (platelet aggregation; ADP-induced): 0.24 µM; IC50 (αIIbβ3; positive control): 0.0237 ± 0.0031 µM |
| COC(=O)CCNC(=O)C1CC(CCCNc2ncccn2)C1 (centres unmarked) [ICT9003 22, 3-({3-[3-(Pyrimidin-2-ylamino)-propyl]-cyclobutanecarbonyl}-amino)-propionic acid methyl ester] | > 100 µM |  |  |  |  |  | melting point: 94 to 95 °C; IC50 at 96 h ([1]; M14 cells, MTT, 96 hours, read-out: M14 IC50 (cytotoxicity)): > 100 µM; IC50 (M14 cells; Homo sapiens, M14 scratch wound, mean ± SD, read-out: Migration IC50): 4.8 ± 0.2 µM |
| Cc1cc(C)c(S(=O)(=O)N[C@@H](CNC(=O)C2CC(CCNc3ncccn3)C2)C(=O)O)c(C)c1 (stereo partly drawn) [ICT9031 52, (S)-3-((1r,3s)-3-(2-(pyrimidin-2-ylamino)ethyl)cyclobutanecarboxamido)-2-(2,4,6-trimethylphenylsulfonamido)propanoic acid] |  | 96.2 ± 6.3% | 1.7 ± 2.4 µM | > 100 µM | > 50 µM | 11.1% | Adhesion % Inhibition @ 50 μM (αvβ3; 50 μM): 11.1 ± 2.4% |
| COC(=O)[C@H](CNC(=O)[C@H]1C[C@H](CCc2ccc3c(n2)NCCC3)C1)NS(=O)(=O)c1c(C)cc(C)cc1C [ICT9055 46, (S)-methyl 3-((1r,3r)-3-(2-(5,6,7,8-tetrahydro-1,8-naphthyridin-2-yl)ethyl)cyclobutanecarboxamido)-2-(2,4,6-trimethylphenylsulfonamido)propanoate] |  | 0 ± 9.8% | > 50 µM | 9.6 ± 5.7 µM | 0.34 ± 0.33 µM | 5.6% | IC50 (M14): > 100 µM; Adhesion % Inhibition @ 5 μM (αvβ3; 5 μM): 98.4 ± 1.9%; IC50 (M14 cells; M14 scratch wound, mean ± SD, read-out: Migration IC50): < 0.1 µM |
| Cc1cc(C)c(S(=O)(=O)N[C@@H](CNC(=O)C2CC(CCc3ccc4cccnc4n3)C2)C(=O)O)c(C)c1 (stereo partly drawn) [ICT9063 55, (S)-3-{(1r,3r)-[3-(2-[1, 8] Naphthyridin-2-yl-ethyl)-cyclobutanecarbonyl]-amino}-2-(2,4,6-trimethyl-benzenesulfonylamino)-propionic acid] |  | 84.5 ± 8.6% | 4.1 ± 2.2 µM | 61.7 ± 2.8 µM | > 5 µM | 13.0% | Adhesion % Inhibition @ 5 μM (αvβ3; 5 μM): 20.7 ± 11.9% |

Second part, led by results:

| IC50 at 96 h (in vitro) | % Inhibition (αIIbβ3/Fg) @ 50 μM (αIIbβ3; mean ± SD) | IC50 (αIIbβ3; mean ± SD) | IC50 (Sk-Mel-2) | IC50 (αvβ3) | SMILES | % Inhibition (Platelet Aggregation) @ 100 μM (platelet aggregation) | also measured |
| --- | --- | --- | --- | --- | --- | --- | --- |
|  |  | 0.39 ± 0.19 µM | > 50 µM | 11 ± 11.6 µM | Cc1cc(C)c(S(=O)(=O)N[C@@H](CNC(=O)[C@H]2C[C@@H](CCCNc3ncccn3)C2)C(=O)O)c(C)c1 [ICT9090 53, (S)-3-((1s,3s)-{3-[3-(Pyrimidin-2-ylamino)-propyl]-cyclobutanecarbonyl}-amino)-2-(2,4,6-trimethyl-benzenesulfonylamino)-propionic acid] | 21.2 ± 7.8% | Adhesion % Inhibition @ 50 μM (αvβ3; 50 μM): 68.9 ± 10.9% |
| > 50 µM |  |  |  |  | NC(N)=NCCC[C@H](N)C(=O)NCC(=O)N[C@@H](CC(=O)O)C(=O)N[C@@H](CO)C(=O)O [RGDS, reference compound] |  | inhibition at 5 µM (αvβ3; 5 μM): 68.5 ± 29.1%; inhibition at 50 µM (αvβ3; 50 μM): 45.8 ± 16.6% |
| 42.5 ± 1.8 µM |  |  |  |  | CC(C)[C@@H]1NC(=O)[C@@H](Cc2ccccc2)NC(=O)[C@H](CC(=O)O)NC(=O)CNC(=O)[C@H](CCCNC(=N)N)NC1=O [cRGDfV, reference compound] |  | IC50 at 96 h [1]: > 50 µM; IC50 (M14 cells): 4 ± 0.07 µM |

— PMC10452181, “Synthesis and Biological Evaluation of Cyclobutane-Based β3 Integrin Antagonists: A Novel Approach to Targeting Integrins for Cancer Therapy” (Cancers, 2023)
